The structures appear in SMILES notation. “And” between values parts separate entries of the source, which are not always exact repeats. Identical values can stand only once.

The assay relates to DNBS induced distal colitis in Wistar rats. As to the kind of experiment: DNBS (2,4 dinitrobenzenesulfonic acid) induced distal colitis in Wistar rats as a model for inflammatory bowel disease. It is filed as in vivo, Wistar derived female rats. Conditions: for I: Table 3; for I / Colon weight per 100 g B.W.: ribavirin 100 mg/kg × 7 or sulfasalazine 300 mg/kg × 7 p.o.; for Colon weight per 100 g B.W.: sacrifice 24 hours after final dosing. As for the experimental part:
Wistar derived female rats were provided by MDS Pharma Services Taiwan Ltd. and housed in APEC^R cages. All animals were maintained in a controlled temperature (22° C.-24° C.) and humidity (60-80%) environment with 12 hours light dark cycles for at least one week in the laboratory prior to use. Free access to standard lab chow (LabDiet, Rodent Diet, PMI Nutrition International, USA) and tap water was granted. All aspects of the work including housing, experimentation and disposal of animals were performed in general accordance with the International Guiding Principles for Biomedical Research Involving Animals (CIOMSI Publication No. ISBN 9290360194, 1985).
[…] (TCI, Japan), absolute ethanol (Merck, Germany), sodium chloride (Wako, Japan), sulfasalazine (Sigma, USA) and Tween 80 (Wako, Japan).
Groups of 3 Wistar derived female rats weighing 180±20 grams and fasted for 24 hours were used. Distal colitis was induced by intra-colonic instillation of 2,4-ninitrobenzene sulfonic acid (DNBS; 30 mg in 0.5 mL ethanol 30%), which was followed by injection of air (2 mL) through a cannula to ensure that the solution remained in the colon. […] Two control groups were similarly treated with vehicle alone while challenged with either DNBS (vehicle-control) or 0.9% NaCl solution (blank-control). The animals were sacrificed 24 hours after the final dosing of test compound and each colon was removed and weighed. During the experiment, the presence of diarrhea was recorded daily. Furthermore, when the abdominal cavity was opened, adhesions between the colon and other organs were first noted; presence of colonic ulceration was evaluated after removal and weighing of each colon. The colon-to-body weight (BW) ratio was then calculated for each animal according to the formula: Colon [(g)/BW(g)]×100%. The “Net” increase in the ratio of vehicle-control+DNBS group relative to vehicle-control group was used as a base for comparison with test substance treated groups and expressed as percent decrease. A 30% or more (≧30%) reduction in colon-to-body weight ratio, relative to the vehicle-treated control group, is considered significant.

With `O=C(O)c1cc(/N=N/c2ccc(S(=O)(=O)Nc3ccccn3)cc2)ccc1O` [Sulfasalazine, sulfasalazine], for the setting “group Avg of 3 rats”, the I is reported as 0.625 and the “Colon weight per 100 g B.W.” value was 0.98. Besides, where the note is “individual animals (N 1-3)”, the I is 0.631 and 0.548 and 0.697; the “Colon weight per 100 g B.W.” value is 1.01 and 0.85 and 1.08.
On to `NC(=O)c1ncn([C@@H]2O[C@H](CO)[C@@H](O)[C@H]2O)n1` [Ribavirin, 1-β-D-ribofuranosyl-1H-1,2,4-triazole-3-carboxamide], for which the I (group Avg of 3 rats) stood at 0.733. Under “individual animals (N 1-3)”, the I is 0.780 and 0.619 and 0.800; the “Colon weight per 100 g B.W.” value is 0.96 and 1.24. Moreover, under “ribavirin 100 mg/kg p.o., 24 and 2 hours before DNBS and then daily for 5 days”, the “effectiveness in this IBD model” value is “effective”.

The values above are taken from patent publication US6930093B2, “Use of ribofuranose derivatives against inflammatory bowel diseases” (Valeant Research & Development, priority 2003, dated 2005).
